Reference: ChEMBL document CHEMBL1833873, “Design and synthesis of C35-fluorinated solamins and their growth inhibitory activities against human cancer cell lines” (2011)

Assays:
Format in all cases: functional
[1] = system: U-251; test: Cytotoxicity against human U251 cells after 48 hrs by sulforhodamine B assay; conditions: U-251, 48 h
[2] = system: OVCAR-8; test: Cytotoxicity against human OVCAR8 cells after 48 hrs by sulforhodamine B assay; conditions: OVCAR-8, 48 h
[3] = Cytotoxicity against human BSY1 cells after 48 hrs by sulforhodamine B assay; conditions: BSY-1, 48 h
[4] = system: HCT-116; test: Cytotoxicity against human HCT116 cells after 48 hrs by sulforhodamine B assay; conditions: HCT-116, 48 h
[5] = system: SNB-75; test: Cytotoxicity against human SNB75 cells after 48 hrs by sulforhodamine B assay; conditions: SNB-75, 48 h
[6] = system: KM12; test: Cytotoxicity against human KM12 cells after 48 hrs by sulforhodamine B assay; conditions: KM12, 48 h
[7] = Cytotoxicity against human HBC4 cells after 48 hrs by sulforhodamine B assay; conditions: HBC4, 48 h
[8] = system: HCC 2998; test: Cytotoxicity against human HCC2998 cells after 48 hrs by sulforhodamine B assay; conditions: HCC 2998, 48 h
[9] = system: SK-OV-3; test: Cytotoxicity against human SKOV3 cells after 48 hrs by sulforhodamine B assay; conditions: SK-OV-3, 48 h
[10] = system: MKN-74; test: Cytotoxicity against human MKN74 cells after 48 hrs by sulforhodamine B assay; conditions: MKN-74, 48 h
[11] = Cytotoxicity against human HBC5 cells after 48 hrs by sulforhodamine B assay; conditions: HBC5, 48 h
[12] = system: NCI-H23; test: Cytotoxicity against human NCI-H23 cells after 48 hrs by sulforhodamine B assay; conditions: NCI-H23, 48 h
[13] = system: MKN-45; test: Cytotoxicity against human MKN45 cells after 48 hrs by sulforhodamine B assay; conditions: MKN-45, 48 h
[14] = system: SF-268; test: Cytotoxicity against human SF268 cells after 48 hrs by sulforhodamine B assay; conditions: SF-268, 48 h
[15] = system: DMS-273; test: Cytotoxicity against human DMS273 cells after 48 hrs by sulforhodamine B assay; conditions: DMS-273, 48 h
[16] = system: HCT-15; test: Cytotoxicity against human HCT15 cells after 48 hrs by sulforhodamine B assay; conditions: HCT-15, 48 h
[17] = system: NCI-H460; test: Cytotoxicity against human NCI-H460 cells after 48 hrs by sulforhodamine B assay; conditions: NCI-H460, 48 h
[18] = system: St-4; test: Cytotoxicity against human St-4 cells after 48 hrs by sulforhodamine B assay; conditions: St-4, 48 h
[19] = system: MKN-7; test: Cytotoxicity against human MKN7 cells after 48 hrs by sulforhodamine B assay; conditions: MKN-7, 48 h
[20] = system: OVCAR-4; test: Cytotoxicity against human OVCAR4 cells after 48 hrs by sulforhodamine B assay; conditions: OVCAR-4, 48 h
[21] = system: LOX IMVI; test: Cytotoxicity against human LOXIMVI cells after 48 hrs by sulforhodamine B assay
[22] = system: OVCAR-3; test: Cytotoxicity against human OVCAR3 cells after 48 hrs by sulforhodamine B assay; conditions: OVCAR-3, 48 h
[23] = system: SNB-78; test: Cytotoxicity against human SNB78 cells after 48 hrs by sulforhodamine B assay; conditions: SNB-78, 48 h
[24] = system: MKN-28; test: Cytotoxicity against human MKN28 cells after 48 hrs by sulforhodamine B assay; conditions: MKN-28, 48 h
[25] = system: DU-145; test: Cytotoxicity against human DU145 cells after 48 hrs by sulforhodamine B assay; conditions: DU-145, 48 h
[26] = system: DMS-114; test: Cytotoxicity against human DMS114 cells after 48 hrs by sulforhodamine B assay; conditions: DMS-114, 48 h
[27] = system: OVCAR-5; test: Cytotoxicity against human OVCAR5 cells after 48 hrs by sulforhodamine B assay; conditions: OVCAR-5, 48 h
[28] = system: SF-539; test: Cytotoxicity against human SF539 cells after 48 hrs by sulforhodamine B assay; conditions: SF-539, 48 h
[29] = system: A549; test: Cytotoxicity against human A549 cells after 48 hrs by sulforhodamine B assay; conditions: A549, 48 h
[30] = system: NCI-H226; test: Cytotoxicity against human NCI-H226 cells after 48 hrs by sulforhodamine B assay; conditions: NCI-H226, 48 h
[31] = system: MCF7; test: Cytotoxicity against human MCF7 cells after 48 hrs by sulforhodamine B assay; conditions: MCF7, 48 h
[32] = Cytotoxicity against human RXF631L cells after 48 hrs by sulforhodamine B assay; conditions: RXF 631, 48 h
[33] = system: ACHN; test: Cytotoxicity against human ACHN cells after 48 hrs by sulforhodamine B assay
[34] = system: NCI-H522; test: Cytotoxicity against human NCI-H522 cells after 48 hrs by sulforhodamine B assay; conditions: NCI-H522, 48 h
[35] = system: PC-3; test: Cytotoxicity against human PC3 cells after 48 hrs by sulforhodamine B assay; conditions: PC-3, 48 h
[36] = system: HT-29; test: Cytotoxicity against human HT-29 cells after 48 hrs by sulforhodamine B assay; conditions: HT-29, 48 h
[37] = system: MDA-MB-231; test: Cytotoxicity against human MDA-MB-231 cells after 48 hrs by sulforhodamine B assay; conditions: MDA-MB-231, 48 h
[38] = Cytotoxicity against human MKN1 cells after 48 hrs by sulforhodamine B assay; conditions: MKN-1, 48 h
[39] = system: SF-295; test: Cytotoxicity against human SF295 cells after 48 hrs by sulforhodamine B assay; conditions: SF-295, 48 h

SMILES	GI50 [1] [µM]	GI50 [2] [µM]	GI50 [3] [µM]	GI50 [4] [µM]	GI50 [5] [µM]	GI50 [6] [µM]	GI50 [7] [µM]	GI50 [8] [µM]	GI50 [9] [µM]	GI50 [10] [µM]	GI50 [11] [µM]	GI50 [12] [µM]	GI50 [13] [µM]	GI50 [14] [µM]	GI50 [15] [µM]	GI50 [16] [µM]	GI50 [17] [µM]	GI50 [18] [µM]	GI50 [19] [µM]	GI50 [20] [µM]	other results
CCCCCCCCCCCC[C@@H](O)[C@H]1CC[C@H]([C@H](O)CCCCCCCCCCCCC2=C[C@H](CF)OC2=O)O1	> 100	16	60	16	63	> 100	> 100	> 100	> 100	40	32	12	76	> 100	48	> 100	79	37	19	> 100	GI50 [21]: > 100 µM; GI50 [22]: > 100 µM; GI50 [23]: > 100 µM; GI50 [24]: 7.8 µM; GI50 [25]: > 100 µM; GI50 [26]: 6.9 µM; GI50 [27]: > 100 µM; GI50 [28]: > 100 µM; GI50 [29]: 76 µM; GI50 [30]: 51 µM; GI50 [31]: 45 µM; GI50 [32]: > 100 µM; GI50 [33]: > 100 µM; GI50 [34]: 15 µM; GI50 [35]: 24 µM; GI50 [36]: 63 µM; GI50 [37]: 59 µM; GI50 [38]: 58 µM; GI50 [39]: 36 µM
CCCCCCCCCCCC[C@@H](O)[C@H]1CC[C@H]([C@H](O)CCCCCCCCCCCCC2=C[C@H](C(F)F)OC2=O)O1	> 100	85	> 100	> 100	> 100	> 100	32	> 100	> 100	57	11	75	> 100	> 100	16	82	> 100	> 100	19	87	GI50 [21]: 15 µM; GI50 [22]: > 100 µM; GI50 [23]: > 100 µM; GI50 [24]: 96 µM; GI50 [25]: > 100 µM; GI50 [26]: 24 µM; GI50 [27]: > 100 µM; GI50 [28]: 79 µM; GI50 [29]: > 100 µM; GI50 [30]: 63 µM; GI50 [31]: 61 µM; GI50 [32]: > 100 µM; GI50 [33]: > 100 µM; GI50 [34]: 24 µM; GI50 [35]: 60 µM; GI50 [36]: > 100 µM; GI50 [37]: > 100 µM; GI50 [38]: 67 µM; GI50 [39]: 44 µM
CCCCCCCCCCCC[C@@H](O)[C@H]1CC[C@H]([C@H](O)CCCCCCCCCCCCC2=C[C@H](C(F)(F)F)OC2=O)O1	> 100	> 100	> 100	> 100	> 100	> 100	> 100	> 100	> 100	> 100	> 100	> 100	> 100	> 100	> 100	> 100	> 100	> 100	89	> 100	GI50 [21]: > 100 µM; GI50 [22]: > 100 µM; GI50 [23]: > 100 µM; GI50 [24]: > 100 µM; GI50 [25]: > 100 µM; GI50 [26]: 52 µM; GI50 [27]: > 100 µM; GI50 [28]: > 100 µM; GI50 [29]: > 100 µM; GI50 [30]: 88 µM; GI50 [31]: 80 µM; GI50 [32]: > 100 µM; GI50 [33]: > 100 µM; GI50 [34]: 53 µM; GI50 [35]: > 100 µM; GI50 [36]: > 100 µM; GI50 [37]: > 100 µM; GI50 [38]: > 100 µM; GI50 [39]: 72 µM
CCCCCCCCCCCC[C@@H](O)[C@H]1CC[C@H]([C@H](O)CCCCCCCCCCCCC2=C[C@H](C)OC2=O)O1 [REL-SOLAMIN]	> 100	> 100	> 100	> 100	> 100	> 100	> 100	> 100	> 100	> 100	> 100	73	> 100	> 100	> 100	> 100	> 100	> 100	13	> 100	GI50 [21]: 29 µM; GI50 [22]: > 100 µM; GI50 [23]: > 100 µM; GI50 [24]: 14 µM; GI50 [25]: > 100 µM; GI50 [26]: 4.3 µM; GI50 [27]: > 100 µM; GI50 [28]: > 100 µM; GI50 [29]: > 100 µM; GI50 [30]: > 100 µM; GI50 [31]: 71 µM; GI50 [32]: > 100 µM; GI50 [33]: > 100 µM; GI50 [34]: 58 µM; GI50 [35]: > 100 µM; GI50 [36]: > 100 µM; GI50 [37]: > 100 µM; GI50 [38]: > 100 µM; GI50 [39]: 40 µM
